Patent US11034672B1, “Tyrosine kinase inhibitor compositions, methods of making and methods of use” (Black Diamond Therapeutics, Inc., priority 2018, dated 2021)

Columns and labels:
[1] = test system: HER2 extracellular variants; assay: Covalent dimer formation of HER2 extracellular variants, Western blot; assay type: cell-based; conditions: Type I inhibitors
BaF3-HER2-Δ16 cells = assay: Proliferation of BaF3 cells driven by HER2-Δ16; assay type: cell-based, murine; conditions: sub-saturating concentrations
Protocol: Assay for cell proliferation: BaF3 cell lines were resuspended at 1.3E5 c/ml in RPMI containing 10% Heat Inactivated FBS, 2% L-glutamine and 1% Pen/Strep and dispensed in triplicate (17.5E4 c/well) into 96 well plates. To determine the effect of drug on cell proliferation, cells incubated for 3 days in the presence of vehicle control or test drug at varying concentrations. Inhibition of cell growth was determined by luminescent quantification of intracellular ATP content using CellTiterGlo (Promega), according to the protocol provided by the manufacturer. Comparison of cell number on day 0 versus 72 hours post drug treatment was used to plot dose-response curves. The number of viable cells was determined and normalized to vehicle-treated controls. […] EC50 values were determined with the same application.

[2] = test system: covalently-activated EGFR variants; assay: Covalent dimer formation, Western blot under non-reducing conditions; assay type: cell-based; conditions: FIG. 18 legend
[3] = test system: cells having the EGFR-Vii mutation; assay: Proliferation of cells having the EGFR-Vii mutation (FIG. 18); assay type: cell-based
Protocol: EC50 values were determined with the same application.

SMILES | covalent dimers for HER2 extracellular variants [1] | proliferation of BaF3 cells driven by HER2-Δ16 (BaF3-HER2-Δ16 cells) | dimerization for covalently activated ErbB receptors [2] | cellular proliferation in response to the inhibitor [3]
CNC(=O)CN1CCC(Oc2cc3c(Nc4cccc(Cl)c4F)ncnc3cc2OC)CC1 [sapitinib] | induce the expression of covalent dimers | paradoxically stimulate the proliferation |  | 
CN(C)C/C=C/C(=O)Nc1cc2c(Nc3ccc(F)c(Cl)c3)ncnc2cc1C#CC1[C@H]2COC[C@@H]12 (stereo partly shown) [NT-113] |  |  | induces dimerization | no evidence for increased cellular proliferation
